Test results taken from patent publication US4859664A, “Derivatives of 2,3,4,5,6,7-hexahydro-2,7-methano-1,5-benzoxazonines and -1,4-benzoxazonines, processes for their production and their use as pharmaceuticals” (priority 1986, dated 1989).
Structures can show the parent of a compound that is named as a salt. Where two headings read alike, the source gives them in different places.

Columns and labels:
[1] = type: in vivo, male NMRI mice
Description: (§1) […]. They were given a standard feed and water ad libitum up to the commencement of the experiments.
(§2) The test compounds were administered in a volume of 10 ml./kg./body weight per mouse. As carrier, there was used physiological sodium chloride solution or a suspension of 0.5% tragacanth in physiological sodium chloride solution.
(§3) The experimental results are given as average values with a mean error of the average value (x±S.E.M.). The ED50 values were calculated according to Litchfield and Wilcoxon (J. Pharmacol. Exp. Ther., 96, 99/1949). The compounds were thereby tested in 4 dosages (p≤0.5).
(§4) For the significance calculation, there was used Student's t test (see Angewandte Statistik, pub. Stringer Verlag, Berlin, Heidelberg, 242/1983), as well as the range sum test of Mann and Withney (Ann. Math. stat., 50, 1818/1947).
(§5) 1.1. In the acetic acid writhing test (see R. Koster et al., Fed. proc., 18, 412/1954), the typical stretching movements referred to as "writhing", were produced by the intraperitoneal administration of a 0.6% acetic acid solution. 30 minutes previously, the substance to be tested was administered subcutaneously (s.c.) or orally ([…].) to the animals. 3 minutes after administration of the acetic acid solution, the total number of stretching movements in a period of time of 10 minutes was ascertained. From the decrease of the stretching reactions due to the action of the test compound in comparison with non-pretreated control groups, there was determined the percentage inhibition action.

[2] = influencing of hexobarbital narcosis; type: in vivo, male NMRI mice
Description: as §1, §2, §3
4. Influencing of hexobarbital narcosis.
The test compounds were administered subcutaneously to 5 animals per dosage group. After 30 minutes, 100 mg./kg. hexobarbital sodium was administered intraperitoneally. 2 to 3 minutes after this injection, the animals allowed themselves to be laid on their backs. For each animal, there was measured the time in minutes from the commencement of the back position up to the time when the animals themselves twice successively again assumed the abdominal position.

[3] = influencing of the amphetamine group toxicity; type: in vivo, male NMRI mice; conditions: amphetamine control group, 15 mg. s.c.
Description: as §1, §2
3. Influencing of the amphetamine group toxicity.
There was investigated the influence of the test compounds on the mortality of amphetamine-treated, aggregated mice. The dosaging of d-amphetamine was 15 mg./kg., which should permit the recognition not only of a synergism but also of an antagonism towards a sympathomimetic compound. Carrying out the experiment:
30 minutes after the subcutaneous administration of the test substance, the animals received subcutaneously 15 mg./kg. of d-amphetamine sulphate. The number of dead animals was recorded after 2, 4 and 7 hours. For the maintenance of the group size, the dead animals were replaced by untreated animals (6 animals/dosage group).

[4] = testing for ataxia (rotating rod test); type: in vivo, male NMRI mice
Description: (§6) For the pharmacological investigations described in the following, there were used male NMRI mice with a weight of from 15 to 30 g. The animals were kept under usual laboratory conditions, randomised and subjected to a light-dark change with a 12 hour rhythm. They were given a standard feed and water ad libitum up to the commencement of the experiments.
as §2
There was used the rotating rod test (see F. Gross et al., Schweiz. Med. Wschr., 85, 305/1955).
5 animals per dosage group were trained to keep themselves on a horizontally rotating rod made of synthetic resin (16 rpm). 40, 80 and 120 minutes after the subcutaneous administration of the test compounds, the animals were again tested. From the number of animals which fell off prematurely, there was determined the disturbance of the movement coordination.

[5] = tonus reduction on striated musculature; type: in vivo, male NMRI mice; conditions: 5 mg./kg. s.c.
Description: as §6, §2
6. Tonus reduction on striated musculature.
The test used is described by J. P. Chambon et al. (Arzneimittelforschung (Drug Research), 35 (II), (10), 1572/1985).
5 animals per dosage group were placed with their front paws on a horizontal metal rod (diameter 3 mm., length 20 cm.) which was fixed 30 cm. above a laboratory bench. Mice with normal muscle tonus climbed within 5 seconds on to the rod with at least one rear paw.
40, 80 and 120 minutes after the subcutaneous administration of the test compound, the animals were again tested for this ability and the number of incapable animals was recorded.

[6] = type: in vivo, male NMRI mice; remark: listed apart in the source
Description: as §1, §2
2. Development of dependency.
Withdrawal jumps of the mouse (see J. K. Saelens et al., Arch. Int. Pharmacodyn. Ther., 190, 213/1971).
Mice which were dependent upon morphine or other opiates react, when treated with morphine antagonists, with a flight reaction (see F. Huidobro and C. Maggiolo, Arch. Int. Pharmacodyn. Ther., 158, 97/1965); E. L. Way et al., Science, 162, 1290/1968). This flight reaction manifests itself in very vigorous jumping reactions which continue for about 10 minutes. From the number of reacting animals and especially from the jump frequency per animal, there can be deduced the strength of the withdrawal symptoms and thus the degree of dependency upon the test compound. Carrying out of the test:
The test and standard compounds were administered subcutaneously according to the scheme shown in the following Table III in increasing dosages over the course of 2 days.
For the provocation of the withdrawal jumps, the animals received intraperitoneally, 2 hours after the last compound administration, 30 mg./kg. naloxone hydrochloride.
Immediately after the administration of the naloxone, the animals were placed individually in a 5 liter glass beaker. Subsequently, the number of jump movements was recorded during the course of 10 minutes. For evaluation, the number of animals reacting the withdrawal jumps, as well as the average number of jumps per animal, was used.
The animals of the naloxone control group were, up to the administration of naloxone, treated with a 0.9% aqueous solution of sodium chloride (6 animals/dosage group).

[7] = type: in vivo, male NMRI mice; conditions: given without sign
Description: They were given a standard feed and water ad libitum up to the commencement of the experiments.
as §2, §3, §4, §5
Naloxone-antagonistic action in the writhing test.
20 Minutes before the subcutaneous administration of the test compounds, the animals were given 20 mg./kg. naloxone hydrochloride subcutaneously. The further carrying out of the experiments was as described above.

In the case of `CC1CCCC2C3CNCCC12Oc1ccccc13` (stereo not drawn) [Example 12, B/C-trans-1,2,3,4,4a,9a-hexahydro-4-methyl-4a,9-(3-azabutano)-xanthene], the “inhibiting action in writhing test” value ([1]; 25 mg./kg. s.c.) was 24% and the “inhibiting action in writhing test” value ([1]; 50 mg./kg. s.c.) was 79%.
In the case of `CC(N)Cc1ccccc1.O=S(=O)(O)O` (stereo not shown) [amphetamine sulphate, reference compound], the “change with regard to hexabarbital sodium” value ([2]; 1.0 mg/kg sc) was -43.2 min and the “period of narcosis ± SEM” value ([2]; 1.0 mg/kg sc, hexobarbital sodium 100 mg./kg. i.p.) was 49.2 ± 14.6 min.
With `CC(N)Cc1ccccc1` (stereo not shown) [amphetamine, reference compound] the “% of deceased animals after 2 hrs.” value [3] was 0%, the “% of deceased animals after 4 hrs.” value [3] was 33% and the “% of deceased animals after 7 hrs.” value [3] was 0%. For the same molecule, the “% of deceased animals, total” value [3] was 33.3%.
In the case of `COc1ccc2c3c1O[C@H]1[C@@H](O)C=C[C@H]4[C@@H](C2)N(C)CC[C@@]341` [codeine phosphate, reference compound], the “change with regard to hexabarbital sodium” value ([2]; 50 mg/kg sc) was “+51.2 min” and the “period of narcosis ± SEM” value ([2]; 50 mg/kg sc, hexobarbital sodium 100 mg./kg. i.p.) was 143.6 ± 10.5 min.
For `CN1C(=O)CN=C(c2ccccc2)c2cc(Cl)ccc21` [diazepam, reference compound], the “change of the maintenance time in % compared with the control group, after 40 min.” value ([4]; 5 mg/kg s.c.) was -87%, the “change of the maintenance time in % compared with the control group, after 80 min.” value ([4]; 5 mg/kg s.c.) was -73% and the “change of the maintenance time in % compared with the control group, after 120 min.” value ([4]; 5 mg/kg s.c.) was -22%. The relaxing action [5] was 93%.
For `CN1C(=O)NC(=O)C(C)(C2=CCCCC2)C1=O` (stereo not shown) [hexobarbital, reference compound], the “period of narcosis ± SEM” value ([2]; hexobarbital alone, 100 mg/kg ip) was 92.4 ± 17.1 min.
In the case of `CN1CC[C@]23c4c5ccc(O)c4O[C@H]2[C@@H](O)C=C[C@H]3[C@H]1C5.Cl` [morphine HCl, reference compound], the “% of reacting animals” value ([6]; mouse, in vivo) was 100%.
For `CCC1(c2ccccc2)C(=O)NC(=O)NC1=O` [phenobarbital, reference compound], the “change of the maintenance time in % compared with the control group, after 40 min.” value ([4]; 30 mg/kg s.c.) was -29%, the “change of the maintenance time in % compared with the control group, after 80 min.” value ([4]; 30 mg/kg s.c.) was -21% and the “change of the maintenance time in % compared with the control group, after 120 min.” value ([4]; 30 mg/kg s.c.) was -37%. The “change of the maintenance time in % compared with the control group, after 40 min.” value ([4]; 50 mg/kg s.c.) was -54%, the “change of the maintenance time in % compared with the control group, after 80 min.” value ([4]; 50 mg/kg s.c.) was -46% and the “change of the maintenance time in % compared with the control group, after 120 min.” value ([4]; 50 mg/kg s.c.) was -42%.
For `COc1cccc(C2(O)CCCCC2CN(C)C)c1` (stereo not shown) [tramadol HCl, reference compound], the “% of reacting animals” value ([6]; s.c. increasing dosages over 2 days, naloxone i.p., 10 minutes) was 83.3%.
For `COc1cccc(C2(O)CCCCC2CN(C)C)c1` (stereo not shown) [tramadol, 2-[(dimethylamino)-methyl]-1-(3-methoxyphenyl)-cyclohexanol, reference compound], the “change in % (with vs without naloxone)” value ([7]; 10 mg/kg s.c.) was 39.0% and the “change in % (with vs without naloxone)” value ([7]; 20 mg/kg s.c.) was 30.7%.
